Measurements taken from patent publication US9763969B2, “Treatment of inflammatory conditions with hyaluronan disaccharide” (CEDARS-SINAI MEDICAL CENTER, priority 2013, dated 2017).

Key:
macrophage = macrophage stimulation assay, Pam3csk4 induced TNF-α secretion; assay type: cell-based; settings: FIG. 3C; for Pam3csk4 induced TNF-α secretion: TLR2 agonist Pam3csk4
From the text: (§1) FIG. 3 depicts, in accordance with an embodiment of the invention, in vitro anti-inflammatory properties of GBS hyaluronidase. A. Bio-Gel P-4 chromatography of hyaluronidase digestion mixture following digestion with GBS, bovine testis, or Streptomyces hyaluronlyticus hyaluronidase. B. Digestion of HA by GBS hyaluronidase leads to suppressed inflammation. C. HA disaccharide inhibits Pam3csk4 induced TNFα secretion.
(§2) Since bovine hyaluronidase degrades HA to 4-16mers, the inventors asked whether subsequent degradation with GBS hyaluronidase would abrogate induction of TNF-α. Indeed that is what the inventors found (FIG. 3B right). Because the major product of GBS hyaluronidase enzymatic activity is diHA (disaccharide), the inventors also evaluated the direct effect of DiHA on TNF-α secretion induced by a TLR2 agonist Pam3csk4.

[1] = system: bone marrow derived macrophages; assay: macrophage stimulation assay, LPS or undigested hyaluronan with hyaluronan disaccharide; assay type: cell-based, mice
Procedure: FIG. 6 depicts, in accordance with an embodiment of the invention, hyaluronan disaccharide has an anti-inflammatory property. Hyaluronan disaccharide was co-incubated with LPS or undigested hyaluronan in a macrophage stimulation assay. Hyaluronan disaccharide reduces TNF-α induction by LPS or undigested hyaluronan.
FIG. 11 depicts, in accordance with an embodiment of the invention, hyaluronan dimers are not inert. Bone marrow derived macrophages from WT mice were incubated with LPS and various concentrations of hyaluronan disaccharide. TNF-α at 18 h was measured.

TLR2 = TLR2 reporter construct in HEK cells; assay type: cell-based; settings: TLR2 agonist Pam3, FIG. 12A
Procedure: (§3) FIG. 12 depicts, in accordance with an embodiment of the invention, HA disaccharide reduces TLR 2 and 4 (A), but not TLR9 (B) signaling. HEK cells were transfected with TLR2, 4, and 9 reporter constructs. The cells were incubated with TLR2 agonist (Pam3), TL4 agonist (LPS), or TLR9 agonist (Cpg) with or without hyaluronan disaccharide. Activation of the reporter genes at 4 h was measured.

TLR4 = TLR4 reporter construct in HEK cells; assay type: cell-based; settings: TLR4 agonist LPS, FIG. 12A
Procedure: as §3

TLR9 = TLR9 reporter construct in HEK cells; assay type: cell-based; settings: TLR9 agonist Cpg, FIG. 12B
Procedure: as §3

acute lung injury = assay: LPS acute lung injury, intratracheal; assay type: in vivo; settings: mice, 5 micrograms LPS intratracheally, 100 micrograms disaccharide, 24 h; FIG. 14
Procedure: FIG. 14 depicts, in accordance with an embodiment of the invention, HA disaccharide decreases acute lung injury. Mice were injected intratracheally with 5 micrograms of LPS, along with PBS, Hyaluronan disaccharide (100 micrograms) or GBS enzyme (1 mg). At 24 h, the mice were sacrificed and the lungs were analyzed for histology (F&G) and cytokines and chemokines (A-E).

[2] = system: bone marrow derived macrophages; assay: hyaluronan predigested with GBS hyaluronidase, then stimulation of macrophages; assay type: cell-based
From the text: FIG. 7 depicts, in accordance with an embodiment of the invention, Group B streptococcal hyaluronidase has an anti-inflammatory property. Hyaluronan was predigested with purified GBS hyaluronidase or PBS, and then transferred to a culture of bone marrow derived macrophages.
(§4) FIG. 8 depicts, in accordance with an embodiment of the invention, GBS hyaluronidase reduces hyaluronan to dimers and dampens inflammation. HPLC profile of hyaluronan fragments generated by bovine hyaluronidase versus Group B streptococcus (GBS) hyaluronidase (A). Stimulatory hyaluronan fragments (4-16mers) were digested with GBS hyaluronidase for 4 or 15 hours (B).
as §2

[3] = hyaluronidase digestion of HA, fragment sizes (Bio-Gel P-4 chromatography / HPLC); assay type: biochemical; settings: FIG. 3A
From the text: as §1, §4, §2

Molecule: hyaluronan disaccharide
- immunostimulatory capacity (macrophage): no immunostimulatory capacity
- Pam3csk4 induced TNF-α secretion (macrophage; listed as HA disaccharide): inhibits
- Pam3csk4 induced TNF-α secretion (macrophage; listed as diHA): partially inhibited
- TNF-α at 18 h with LPS and various concentrations of hyaluronan disaccharide ([1]; bone marrow derived macrophages from WT mice, FIG. 11): not inert
- TNF-α induction by LPS ([1]; co-incubated with LPS, FIG. 6): reduces
- TNF-α induction by undigested hyaluronan ([1]; co-incubated with undigested hyaluronan, FIG. 6): reduces
- TLR2 signaling (reporter gene activation at 4 h) (TLR2): reduces
- TLR4 signaling (reporter gene activation at 4 h) (TLR4): reduces
- TLR9 signaling (reporter gene activation at 4 h) (TLR9): not
- acute lung injury (acute lung injury): decreases

B1: GBS hyaluronidase: purified hyaluronidase from Group B Streptococcus (S. agalactiae) that degrades HA to a disaccharide (protein, UniProt Q53591 41-984, looked up)
Hyaluronate lyase: WIDKENTADKSPIIQRTEQGQVSLSSDKGFRGAVTQKVNIDPTKKYEVKFDIETSNKAGQAFLRIMEKKDNNTRLWLSEMTSGTTNKHTLTKIYNPKLNVSEVTLELYYEKGTGSATFDNISMKAKGPKDSEHPQPVTTQIEESVNTALNKNYVFNKADYQYTLTNPSLGKIVGGILYPNATGSTTVKISDKSGKIIKEVPLSVTASTEDKFTKLLDKWNDVTIGNHVYDTNDSNMQKINQKLDETNAKNIKTIKLDSNHTFLWKDLDNLNNSAQLTATYRRLEDLAKQITNPHSTIYKNEKAIRTVKESLAWLHQNFYNVNKDIEGSANWWDFEIGVPRSITATLALMNNYFTDAEIKTYTDPIEHFVPDAGYFRKTLDNPFKALGGNLVDMGRVKIIEGLLRKDNTIIEKTSHSLKNLFTTATKAEGFYADGSYIDHTNVAYTGAYGNVLIDGLTQLLPIIQETDYKISNQELDMVYKWINQSFLPLIVKGELMDMSRGRSISREAASSHAAAVEVLRGFLRLANMSNEERNLDLKSTIKTIITSNKFYNVFNNLKSYSDIANMNKMLNDSTVATKPLKSNLSTFNSMDRLAYYNAEKDFGFALSLHSKRTLNYEGMNDENTRDWYTGDGMFYLYNSDQSHYSNHFWPTVNPYKMAGTTEKDAKREDTTKEFMSKHSKDAKEKTGQVTGTSDFVGSVKLNDHFALAAMDFTNWDRTLTAQKGWVILNDKIVFLGSNIKNTNGIGNVSTTIDQRKDDSKTPYTTYVNGKTIDLKQASSQQFTDTKSVFLESKEPGRNIGYIFFKNSTIDIERKEQTGTWNSINRTSKNTSIVSNPFITISQKHDNKGDSYGYMMVPNIDRTSFDKLANSKEVELLENSSKQQVIYDKNSQTWAVIKHDNQESLINNQFKMNKAGLYLVQKVGNDYQNVYYQPQTMTKTDQLAI
- TNF-α stimulation by hyaluronan ([2]; hyaluronan predigested with purified GBS hyaluronidase or PBS, FIG. 7): significantly reduces
- cytokine production ([2]; stimulatory hyaluronan fragments (4-16mers) digested for 4 or 15 hours, FIG. 8B): reduces cytokine production
- induction of TNF-α by HA degraded with bovine hyaluronidase ([2]; subsequent degradation with GBS hyaluronidase, FIG. 3B right): abrogate
- HA degradation product (fragment size) [3]: a single product—a disaccharide
